Data: ChEMBL document CHEMBL2424635, “Discovery of novel histidine-derived lipo-amino acids: applied in the synthesis of ultra-short antimicrobial peptidomimetics having potent antimicrobial activity, salt resistance and protease stability” (Eur J Med Chem, 2013)
≈ marks a conversion by molar mass, not a printed value. Calls of active or inactive are those of the source. The calls are words filed in the database; no cut-off is given here.

Key:
[1] = tested on: Pseudomonas aeruginosa; experiment: Antibacterial activity against Pseudomonas aeruginosa KCTC 1637 assessed as growth inhibition after 18 to 20 hrs by broth microdilution method in presence of NaCl; assay type: functional
[2] = tested on: Escherichia coli; experiment: Antibacterial activity against Escherichia coli KCTC 1682 assessed as growth inhibition after 18 to 20 hrs by broth microdilution method in presence of NaCl; assay type: functional
[3] = tested on: Staphylococcus aureus; experiment: Antibacterial activity against methicillin-resistant Staphylococcus aureus CCARM 3095 assessed as growth inhibition after 18 to 20 hrs by broth microdilution method; assay type: functional
[4] = tested on: Staphylococcus epidermidis; experiment: Antibacterial activity against Staphylococcus epidermidis KCTC 1917 assessed as growth inhibition after 18 to 20 hrs by broth microdilution method in presence of NaCl; assay type: functional
[5] = tested on: Salmonella typhimurium; experiment: Antibacterial activity against Salmonella typhimurium KCTC 1926 assessed as growth inhibition after 18 to 20 hrs by broth microdilution method; assay type: functional, Salmonella enterica subsp. enterica serovar Typhimurium; conditions: Salmonella enterica
[6] = tested on: Bacillus subtilis; experiment: Antibacterial activity against Bacillus subtilis KCTC 3068 assessed as growth inhibition after 18 to 20 hrs by broth microdilution method; assay type: functional
[7] = tested on: Staphylococcus aureus; experiment: Antibacterial activity against Staphylococcus aureus KCTC 1621 assessed as growth inhibition after 18 to 20 hrs by broth microdilution method; assay type: functional
[8] = tested on: Staphylococcus epidermidis; experiment: Antibacterial activity against Staphylococcus epidermidis KCTC 1917 assessed as growth inhibition after 18 to 20 hrs by broth microdilution method; assay type: functional
[9] = tested on: Salmonella typhimurium; experiment: Antibacterial activity against Salmonella typhimurium KCTC 1926 assessed as growth inhibition after 18 to 20 hrs by broth microdilution method in presence of NaCl; assay type: functional, Salmonella enterica subsp. enterica serovar Typhimurium; conditions: Salmonella enterica
[10] = tested on: Pseudomonas aeruginosa; experiment: Antibacterial activity against Pseudomonas aeruginosa KCTC 1637 assessed as growth inhibition after 18 to 20 hrs by broth microdilution method; assay type: functional
[11] = Hemolytic activity in human RBC assessed as hemoglobin release after 1 hr; assay type: ADME, cell-based, Erythrocyte; conditions: red blood cells (RBC)
[12] = tested on: Bacillus subtilis; experiment: Antibacterial activity against Bacillus subtilis KCTC 3068 assessed as growth inhibition after 18 to 20 hrs by broth microdilution method in presence of NaCl; assay type: functional
[13] = tested on: Staphylococcus aureus; experiment: Antibacterial activity against methicillin-resistant Staphylococcus aureus CCARM 3090 assessed as growth inhibition after 18 to 20 hrs by broth microdilution method; assay type: functional
[14] = tested on: Staphylococcus aureus; experiment: Antibacterial activity against Staphylococcus aureus KCTC 1621 assessed as growth inhibition after 18 to 20 hrs by broth microdilution method in presence of NaCl; assay type: functional
[15] = tested on: Staphylococcus aureus; experiment: Antibacterial activity against methicillin-resistant Staphylococcus aureus CCARM 3089 assessed as growth inhibition after 18 to 20 hrs by broth microdilution method; assay type: functional
[16] = tested on: Escherichia coli; experiment: Antibacterial activity against Escherichia coli KCTC 1682 assessed as growth inhibition after 18 to 20 hrs by broth microdilution method; assay type: functional
[17] = tested on: Escherichia coli; experiment: Antibacterial activity against Escherichia coli KCTC 1682 assessed as growth inhibition at 50 ug/ml after 18 to 20 hrs by broth microdilution method in presence of trypsin; assay type: functional, organism-based
[18] = tested on: Staphylococcus aureus; experiment: Antibacterial activity against Staphylococcus aureus KCTC 1621 assessed as growth inhibition at 50 ug/ml after 18 to 20 hrs by broth microdilution method in presence of trypsin; assay type: functional, organism-based
[19] = tested on: Staphylococcus aureus; experiment: Antibacterial activity against Staphylococcus aureus KCTC 1621 assessed as disruption of cellular structure at 3 x MIC after 1 hr by transmission electron microscopic analysis; assay type: functional, organism-based
[20] = tested on: Escherichia coli; experiment: Antibacterial activity against Escherichia coli KCTC 1682 assessed as disruption of cellular structure at 3 x MIC after 1 hr by transmission electron microscopic analysis; assay type: functional, organism-based

Row | Structure (SMILES) | MIC [1] | MIC [2] | MIC [3] | MIC [4] | MIC [5] | MIC [6] | MIC [7] | MIC [8] | MIC [9] | MIC [10] | HC50 at 1 h [11] | MIC [12] | MIC [13] | MIC [14] | MIC [15] | MIC [16] | growth inhibition (GI) [17] | growth inhibition (GI) [18] | Activity [19] | Activity [20]
1 | CCCCCCC/C=C/Cn1cncc1C[C@H](NC(=O)[C@@H](N)CCCNC(=N)N)C(=O)N[C@@H](CCCNC(=N)N)C(N)=O | 64 µg/mL | > 64 µg/mL | 16 µg/mL (≈ 26.5 µM) | 64 µg/mL | 64 µg/mL (≈ 106 µM) | 4 µg/mL (≈ 6.61 µM) | 8 µg/mL (≈ 13.2 µM) | 4 µg/mL (≈ 6.61 µM) | 64 µg/mL | 32 µg/mL (≈ 52.9 µM) | > 256 µg/mL | 16 µg/mL | 16 µg/mL (≈ 26.5 µM) | 32 µg/mL | 16 µg/mL (≈ 26.5 µM) | 32 µg/mL (≈ 52.9 µM) | – | – | – | –
2 | CCCCCCCCCCCCCCn1c[n+](CCCCCCCCCCCCCC)cc1C[C@H](NC(=O)[C@@H](N)CCCNC(=N)N)C(=O)N[C@@H](CCCNC(=N)N)C(N)=O | > 64 µg/mL | > 64 µg/mL | > 64 µg/mL | > 64 µg/mL | > 64 µg/mL | > 64 µg/mL | > 64 µg/mL | > 64 µg/mL | > 64 µg/mL | > 64 µg/mL | > 256 µg/mL | > 64 µg/mL | > 64 µg/mL | > 64 µg/mL | > 64 µg/mL | > 64 µg/mL | – | – | – | –
3 | CC[C@H](C)[C@H](NC(=O)[C@H](CCCCN)NC(=O)[C@H](CCC(=O)O)NC(=O)[C@H](CCCCN)NC(=O)[C@H](CO)NC(=O)[C@H](CCCCN)NC(=O)[C@H](CCCNC(=N)N)NC(=O)[C@H](Cc1ccccc1)NC(=O)[C@H](Cc1ccccc1)NC(=O)[C@H](CC(=O)O)NC(=O)CNC(=O)[C@H](CC(C)C)NC(=O)[C@@H](N)CC(C)C)C(=O)NCC(=O)N[C@@H](CCCCN)C(=O)N[C@@H](CCC(=O)O)C(=O)N[C@@H](Cc1ccccc1)C(=O)N[C@@H](CCCCN)C(=O)N[C@@H](CCCNC(=N)N)C(=O)N[C@H](C(=O)N[C@H](C(=O)N[C@@H](CCC(N)=O)C(=O)N[C@@H](CCCNC(=N)N)C(=O)N[C@H](C(=O)N[C@@H](CCCCN)C(=O)N[C@@H](CC(=O)O)C(=O)N[C@@H](Cc1ccccc1)C(=O)N[C@@H](CC(C)C)C(=O)N[C@@H](CCCNC(=N)N)C(=O)N[C@@H](CC(N)=O)C(=O)N[C@@H](CC(C)C)C(=O)N[C@H](C(=O)N1CCC[C@H]1C(=O)N[C@@H](CCCNC(=N)N)C(=O)N[C@H](C(=O)N[C@@H](CCC(=O)O)C(=O)N[C@@H](CO)C(N)=O)[C@@H](C)O)C(C)C)[C@@H](C)CC)C(C)C)[C@@H](C)CC | 64 µg/mL | 16 µg/mL | > 32 µg/mL | > 64 µg/mL | 16 µg/mL (≈ 3.56 µM) | 32 µg/mL (≈ 7.12 µM) | 32 µg/mL (≈ 7.12 µM) | 16 µg/mL (≈ 3.56 µM) | 32 µg/mL | 64 µg/mL (≈ 14.2 µM) | > 256 µg/mL | 16 µg/mL | > 32 µg/mL | > 64 µg/mL | > 32 µg/mL | 32 µg/mL (≈ 7.12 µM) | inactive | inactive | – | –
4 | CCCCCCCCCCn1c[n+](CCCCCCCCCC)cc1C[C@H](NC(=O)[C@H](CCCNC(=N)N)NC(=O)[C@@H](N)CCCNC(=N)N)C(N)=O | 8 µg/mL | 16 µg/mL | 8 µg/mL | 4 µg/mL | 8 µg/mL | 8 µg/mL | 8 µg/mL | 8 µg/mL | 16 µg/mL | 8 µg/mL | 116 µg/mL | 4 µg/mL | 8 µg/mL | 4 µg/mL | 8 µg/mL | 16 µg/mL | Active | Active | Active | Active
5 | CCCCCCCCCCn1c[n+](CCCCCCCCCC)cc1C[C@H](N)C(=O)N[C@@H](CCCNC(=N)N)C(=O)N[C@@H](CCCNC(=N)N)C(N)=O | 8 µg/mL | 16 µg/mL | 4 µg/mL | 4 µg/mL | 8 µg/mL | 4 µg/mL | 4 µg/mL | 4 µg/mL | 16 µg/mL | 8 µg/mL | 110 µg/mL | 4 µg/mL | 4 µg/mL | 8 µg/mL | 4 µg/mL | 8 µg/mL | Active | Active | Active | Active
